According to patent publication EP4803523A1, “FUSED HETEROARYL COMPOUND, PREPARATION METHOD THEREFOR, AND USE THEREOF IN MEDICINE” (Jiangsu Hengrui Pharmaceuticals Co., Ltd., priority 2023, dated 2025):

Key:
in vivo = settings: rat, in vivo, po, 20 mg/kg
Procedure: Using SD rats as the test animals, the plasma concentrations of the example compounds at different time points were determined by LC-MS/MS following oral gavage (i.g.) administration. The pharmacokinetic behaviours of the compounds of the present disclosure in rats were investigated, and their pharmacokinetic profiles were evaluated.
Blood samples (0.2 mL) were collected from the orbit before administration and at 0.25, 0.5, 1.0, 2.0, 4.0, 6.0, 8.0, 11.0, and 24.0 hours after administration. The samples were placed in EDTA-K2 anticoagulant tubes, centrifuged at 10,000 rpm for 2 minute (4°C), and the plasma was separated within 1 hour and stored at -20°C or -80°C until analysis. The entire process from blood collection to centrifugation was performed in ice bath conditions.
The mixture was vortexed and then centrifuged at 4000 rpm for 15 minutes; the supernatant was taken for LC-MS/MS analysis. […] The mixture was vortexed and then centrifuged at 3700 rpm for 10 minutes; the supernatant was taken for LC-MS/MS analysis.
The mixture was vortexed and then centrifuged at 4000 rpm for 15 minutes; the supernatant was taken for LC-MS/MS analysis. […] The mixture was vortexed and then centrifuged at 4000 rpm for 15 minutes; the supernatant was taken for LC-MS/MS analysis.

AGS = assay: 3D cell proliferation inhibition assay (CellTiter-Glo 3D); type: cell-based; settings: Homo sapiens, 120 h; AGS cells, KRAS G12D, 3D culture, 5 days with compound
Procedure: (§1) This experiment uses the cells listed in the table below to evaluate the inhibitory effects of the compounds on the proliferation of KRAS mutant or KRAS amplified cells.
(§2) On the first day of the experiment, cells that were growing well and had reached 70%-80% confluence were digested, resuspended in culture medium, and the cell density was adjusted to the desired level. In a U-shaped low-attachment 96-well plate (Corning, 7007), 90 µL of cell suspension was added per well, with the cell density as shown in the table above. The cell plate was centrifuged at 2500 rpm for 5 minutes and then placed in an incubator for 24 hours of culture. On the second day, the 20 mM test compound dissolved in DMSO was diluted with DMSO to the first concentration of 2 or 0.2 mM, and then serially diluted in a 5-fold gradient to obtain 9 concentration points, with the control well containing DMSO. The serially diluted compound was then further diluted 20-fold with culture medium. 10 µL of the test compound diluted in culture medium was added to each well of the cell plate. The final concentrations of the compound were 9 points in a 5-fold serial dilution starting from 10 or 1 µM. Cell wells containing 0.5% DMSO were set as vehicle control wells, and wells containing only culture medium and 0.5% DMSO were set as blank control wells. The cell plate was centrifuged at 2000 rpm for 3 minutes and then placed in an incubator for 5 days of culture. On the seventh day, the 96-well cell culture plate was taken out, and 50 µL of the luminescent cell viability detection reagent, CellTiter-Glo® 3D Cell Viability Assay (Promega, G9683), was added to each well. After shaking at room temperature for 25 minutes, the mixture was pipetted up and down to mix, and 100 µL was transferred from each well to a white, opaque-bottom OptiPlate™-96 well plate (PerkinElmer, 6005290). The luminescence signal value was read using a multimode microplate reader (PerkinElmer, EnVision2105).
(§3) The inhibition rate was calculated using the following formula: Inhibition rate = (Luminescence value vehicle control well - Luminescence value test compound)/(Luminescence value vehicle control well - Luminescence value blank control well) × 100%. The IC50 values of the compound inhibitory activity were calculated using Graphpad Prism software. Table 1. Data of inhibitory activity on 3D cell proliferation (unit: nM)

GP2d = assay: as above; type: cell-based; settings: GP2d cells, KRAS G12D, 3D culture, 5 days with compound
Procedure: as §1, §2, §3

AsPC-1 = assay: as above; type: cell-based; settings: Homo sapiens, ASPC1, 120 h; AsPC-1 cells, KRAS G12D, 3D culture, 5 days with compound
Procedure: as §1, §2, §3

MKN1 = assay: as above; type: cell-based; settings: Homo sapiens, MKN-1, 120 h; MKN1 cells, KRAS Amp, 3D culture, 5 days with compound
Procedure: as §1, §2, §3

H358 = assay: as above; type: cell-based; settings: Homo sapiens, NCI-H358, 120 h; H358 cells, KRAS G12C, 3D culture, 5 days with compound
Procedure: as §1, §2, §3

Compound | IC50 (AGS) | IC50 (AsPC-1) | IC50 (GP2d; GP2d, 120 h) | other results
N#Cc1c(N)sc2c(F)ccc(-c3c4c(c5cnc(OC[C@@]67CCCN6C[C@H](F)C7)nc5c3Cl)COC4)c12 (single isomer, unassigned) [60A (reference), reference compound] |  |  |  | AUC(0-t) (in vivo): 1820 ng·h/mL; CL/F (in vivo): 178 mL/min/kg; Cmax (in vivo): 143 ng/mL; Vd/F (in vivo): 54.5 L/kg; half-life (in vivo): 3.53 h
N#Cc1c(N)sc2c(F)ccc(-c3c4c(c5c(N6C7CCC6CNC7)nc(OCC6(CN7CCC(=CF)CC7)CC6)nc5c3F)COC4)c12 (single isomer, unassigned) [Example 9A] | 4.22 nM |  |  | IC50 (GP2d): 0.16 nM
N#Cc1c(N)sc2c(F)ccc(-c3c4c(c5c(N6C7CCC6CNC7)nc(OCC6(CN7CCC(=CF)CC7)CC6)nc5c3F)COC4)c12 (single isomer, unassigned) [Example 9B] |  |  |  | IC50 (GP2d): 2.6 nM
C[C@@H](O)CN1CC2CCC(C1)N2c1nc(OCC2(C#N)CC2)nc2c(F)c(-c3ncc(F)c4sc(N)c(C#N)c34)c3c(c12)COC3 [58 (reference), reference compound] | 2000 nM | 3330 nM | > 1000 nM | 
C[C@@H](O)CN1CC2CCC(C1)N2c1nc(OCC2(CN3CCC(=CF)CC3)CC2)nc2c(F)c(-c3ncc(F)c4sc(N)c(C#N)c34)c3c(c12)COC3 [Example 1, 2-amino-7-fluoro-4-(5-fluoro-3-((1-((4-(fluoromethylene)piperidin-1-yl)methyl)cyclopropyl)methoxy)-1-(3-((R)-2-hydroxypropyl)-3,8-diazabicyclo[3.2.1]oct-8-yl)-7,9-dihydrofuro[3,4-f]quinazolin-6-yl)thieno[3,2-c]pyridine-3-carbonitrile] | 1.03 nM | 4.17 nM | 0.28 nM | 
N#Cc1c(N)sc2c(F)cnc(-c3c4c(c5c(N6C7CCC6CNC7)nc(OCC6(CN7CCC(=CF)CC7)CC6)nc5c3F)COC4)c12 [Example 1i, 4-(1-(3,8-diazabicyclo[3.2.1]oct-8-yl)-5-fluoro-3-((1-((4-(fluoromethylene)piperidin-1-yl)methyl)cyclopropyl)methoxy)-7,9-dihydrofuro[3,4-f]quinazolin-6-yl)-2-amino-7-fluorothieno[3,2-c]pyridine-3-carbonitrile] | 1.03 nM | 5.07 nM | 0.34 nM | 
N#Cc1c(N)sc2c(F)ccc(-c3c4c(c5c(N6C7CCC6CNC7)nc(OCC6(CN7CCC(=CF)CC7)CC6)nc5c3F)COC4)c12 [Example 9, 4-(1-(3,8-diazabicyclo[3.2.1]oct-8-yl)-5-fluoro-3-((1-((4-(fluoromethylene)piperidin-1-yl)methyl)cyclopropyl)methoxy)-7,9-dihydrofuro[3,4-f]quinazolin-6-yl)-2-amino-7-fluorobenzo[b]thiophene-3-carbonitrile] | 1.09 nM | 9.95 nM | 0.26 nM | 
N#Cc1c(N)sc2c(F)ccc(-c3c4c(c5c(N6C7CCC6CNC7)nc(OCC6(CN7CCC(=C(F)F)CC7)CC6)nc5c3F)COC4)c12 [Example 11, 4-(1-(3,8-diazabicyclo[3.2.1]oct-8-yl)-3-((1-((4-(difluoromethylene)piperidin-1-yl)methyl)cyclopropyl)methoxy)-5-fluoro-7,9-dihydrofuro[3,4-f]quinazolin-6-yl)-2-amino-7-fluorobenzo[b]thiophene-3-carbonitrile] | 8.64 nM |  | 0.86 nM | 
N#Cc1c(N)sc2c(F)ccc(-c3c4c(c5c(N6C7CCC6CNC7)nc(OCC67CCCN6CC(=CF)C7)nc5c3F)COC4)c12 (centres unmarked) [Example 13, 4-(1-(3,8-Diazabicyclo[3.2.1]oct-8-yl)-5-fluoro-3-((2-(fluoromethylene)tetrahydro-1H-pyrrolizin-7a(5H)-yl)methoxy)-7,9-dihydrofuro[3,4-f]quinazolin-6-yl)-2-amino-7-fluorobenzo[b]thiophene-3-carbonitrile] | 2.19 nM |  | 0.39 nM | 
N#Cc1c(N)sc2c(F)ccc(-c3c4c(c5cnc(OCC6(CN7CCC(=CF)CC7)CC6)nc5c3F)COC4)c12 [Example 14, 2-Amino-7-fluoro-4-(5-fluoro-3-((1-((4-(fluoromethylene)piperidin-1-yl)methyl)cyclopropyl)methoxy)-7,9-dihydrofuro[3,4-f]quinazolin-6-yl)benzo[b]thiophene-3-carbonitrile] | 15.1 nM |  | 5.85 nM | IC50 (MKN1): 8.1 nM
N#Cc1c(N)sc2c(F)ccc(-c3c4c(c5c(N6C7CCC6CNC7)nc(OCC67CCCN6CC(=C(F)F)C7)nc5c3F)COC4)c12 (centres unmarked) [Example 17, 4-(1-(3,8-Diazabicyclo[3.2.1]oct-8-yl)-3-((2-(difluoromethylene)tetrahydro-1H-pyrrolizin-7a(5H)-yl)methoxy)-5-fluoro-7,9-dihydrofuro[3,4-f]quinazolin-6-yl)-2-amino-7-fluorobenzo[b]thiophene-3-carbonitrile] | 2.86 nM |  | 0.57 nM | 
C=C1CN2CC(=C)CC2(COc2nc(N3C4CCC3CNC4)c3c4c(c(-c5ccc(F)c6sc(N)c(C#N)c56)c(F)c3n2)COC4)C1 [Example 18, 4-(1-(3,8-Diazabicyclo[3.2.1]oct-8-yl)-3-((2,6-dimethylenetetrahydro-1H-pyrrolizin-7a(5H)-yl)methoxy)-5-fluoro-7,9-dihydrofuro[3,4-f]quinazolin-6-yl)-2-amino-7-fluorobenzo[b]thiophene-3-carbonitrile] | 4.89 nM |  | 0.53 nM | 
N#Cc1c(N)sc2c(F)cnc(-c3c4c(c5c(N6C7CCC6CNC7)nc(OCC6(CN7CCC(=C(F)F)CC7)CC6)nc5c3F)COC4)c12 [Example 20, 4-(1-(3,8-diazabicyclo[3.2.1]oct-8-yl)-3-((1-((4-(difluoromethylene)piperidin-1-yl)methyl)cyclopropyl)methoxy)-5-fluoro-7,9-dihydrofuro[3,4-f]quinazolin-6-yl)-2-amino-7-fluorothieno[3,2-c]pyridine-3-carbonitrile] | 2.09 nM | 7.56 nM | 0.27 nM | 
N#Cc1c(N)sc2c(F)cnc(-c3c4c(c5c(N6C7CCC6CN(O)C7)nc(OCC6(CN7CCC(=C(F)F)CC7)CC6)nc5c3F)COC4)c12 [Example 21, 2-Amino-4-(3-((1-((4-(difluoromethylene)piperidin-1-yl)methyl)cyclopropyl)methoxy)-5-fluoro-1-(3-hydroxyl-3,8-diazabicyclo[3.2.1]oct-8-yl)-7,9-dihydrofuro[3,4-f]quinazolin-6-yl)-7-fluorothieno[3,2-c]pyridine-3-carbonitrile] |  |  | 2.12 nM | 
N#Cc1c(N)sc2c(F)cnc(-c3c4c(c5c(N6C7CCC6CN(O)C7)nc(OCC6(CN7CCC(=CF)CC7)CC6)nc5c3F)COC4)c12 [Example 22, 2-Amino-7-fluoro-4-(5-fluoro-3-((1-((4-(fluoromethylene)piperidin-1-yl)methyl)cyclopropyl)methoxy)-1-(3-hydroxyl-3,8-diazabicyclo[3.2.1]oct-8-yl)-7,9-dihydrofuro[3,4-f]quinazolin-6-yl)thieno[3,2-c]pyridine-3-carbonitrile] | 1.57 nM | 4.64 nM | 0.26 nM | 
C=C1CN2CC(=C)CC2(COc2ncc3c4c(c(-c5ccc(F)c6sc(N)c(C#N)c56)c(F)c3n2)COC4)C1 [Example 26, 2-Amino-4-(3-((2,6-dimethylenetetrahydro-1H-pyrrolizin-7a(5H)-yl)methoxy)-5-fluoro-7,9-dihydrofuro[3,4-f]quinazolin-6-yl)-7-fluorobenzo[b]thiophene-3-carbonitrile] |  |  | 9.79 nM | IC50 (MKN1): 13.2 nM
N#Cc1c(N)sc2ccc(F)c(-c3c4c(c5cnc(OCC6(CN7CCC(=CF)CC7)CC6)nc5c3F)COC4)c12 [Example 40, 2-Amino-5-fluoro-4-(5-fluoro-3-((1-((4-(fluoromethylene)piperidin-1-yl)methyl)cyclopropyl)methoxy)-7,9-dihydrofuro[3,4-f]quinazolin-6-yl)benzo[b]thiophene-3-carbonitrile] |  |  | 8.4 nM | IC50 (MKN1): 11.1 nM
C=CC(=O)N1CC2CCC(C1)N2c1nc(OCC2(CN3CCC(=C(F)F)CC3)CC2)nc2c(F)c(-c3ncc(F)c4sc(N)c(C#N)c34)c3c(c12)COC3 [Example 55] |  |  |  | IC50 (H358): 0.63 nM
C=CC(=O)N1C[C@H](C)N(c2nc(OCC3(CN4CCC(=C(F)F)CC4)CC3)nc3c(F)c(-c4ncc(F)c5sc(N)c(C#N)c45)c4c(c23)COC4)C[C@H]1C [Example 56] |  |  |  | IC50 (H358): 6.76 nM
